Ends that are not written are not given here.
Key:
[1] = test system: TRP-2181-188-specific immune responses; assay: IFN-γ ELISPOT of spleen cells at day 40 after injection with TRP-2181-188 (Example 4); assay type: in vivo, Mice C57Bl/6; conditions: injected with TRP-2181-188, single adjuvant, compared to TRP-2181-188 alone
serum DNAses = assay: Degradation of DNA-plasmid pSP65 by serum DNAses, agarose gel (Example 8); assay type: in vitro ADME; conditions: incubated with serum from naïve mice, 1 h at 37° C., presence of poly-L-arginine 2.4 μg
Protocol: To investigate the protective effect of pR in preventing the degradation of DNA by DNAses the following in vitro experiment was performed. To show a possible in vivo relevance serum was used as source of DNases.
The DNA-plasmid pSP65 (1.58 μg/2 μl) was incubated with serum (8 μl) from naïve mice in the presence or absence of poly-L-arginine (2.4 μg/2.4 μl) for 1 h at 37° C. Addition of heparin (1.6 U/1.6 μl) for 20 min at RT was used for the dissociation of DNA/pR-complexes allowing DNA to migrate into the gel. […] As control a 100 bp DNA marker (GIBCO BRL) was used.

[2] = test system: OVA257-264-specific IFN-γ producing T cells; assay: IFN-γ ELISPOT of PBMCs at day 7 after injection with OVA257-264 and KLK (Example 6); assay type: in vivo, Mice C57Bl/6; conditions: injected with OVA257-264, single adjuvant
[3] = test system: peptide-specific IFN-γ-producing T cells (TRP-2181-188); assay: IFN-γ ELISPOT of PBMCs at day 7 after injection with TRP-2181-188 and KLK (Example 7); assay type: in vivo, Mice C57Bl/6; conditions: TRP-2181-188 alone or with a single adjuvant
[4] = test system: TRP-2181-188-specific immune responses; assay: IFN-γ ELISPOT of lymph node cells after footpad injection with TRP-2181-188 (Examples 2 and 3); assay type: in vivo, Mice C57Bl/6; conditions: injected with TRP-2181-188 and co-injection of poly-L-arginine 100 μg/mouse; ODN 5 nmol/mouse
[5] = test system: TRP-2181-188-specific immune responses; assay: IFN-γ ELISPOT of spleen cells at day 6, 49 and 98 after injection with TRP-2181-188 (Example 5); assay type: in vivo, Mice C57Bl/6; conditions: co-injection of TRP-2181-188, pR and ODN, day 6, day 49, day 98 after single injection, compared to TRP-2181-188 with pR or CpG 1668b
[6] = test system: OVA257-264-specific immune responses; assay: IFN-γ ELISPOT of popliteal lymph node cells 4 days after footpad injection with OVA257-264 (Example 1); assay type: in vivo, Mice C57Bl/6; conditions: injected with OVA257-264 and co-injection of poly-L-arginine 100 μg/mouse; ODN 5 nmol/mouse; day 4
Protocol: • Mice C57Bl/6 (Harlan/Olac) • Peptide OVA257-264-Peptide (SIINFEKL), a MHC class I (H-2 Kb)-restricted epitope of chicken ovalbumin (Rotzschke et al., 1991), synthesized by standard solid phase F-moc synthesis, HPLC purified and analysed by mass spectroscopy for purity • Dose: 300 μg/mouse • Poly-L-arginine (pR) Poly-L-arginine with an average degree of polymerization of 43 arginine residues; SIGMA chemicals • Dose: 100 μg/mouse • CpG-ODN 1668 thiophosphate substituted ODNs containing CpG-motif: tcc atg acg ttc ctg atg ct, were synthesized by Purimex GmbH, Göttingen. • Dose: 5 nmol/mouse • CpG-ODN 1668 b ODNs containing CpG-motif (not substituted with thiophospate): tcc atg acg ttc ctg atg ct, were synthesized by Purimex GmbH, Göttingen. • Dose: 5 nmol/mouse. Experimental Groups (4 Mice Per Group) • 1. OVA257-264+pR • 2. OVA257-264+CpG-ODN 1668 • 3. OVA257-264+CpG-ODN 1668 b • 4. OVA257-264+CPG-ODN 1668+pR • 5. OVA257-264+CPG-ODN 1668 b+pR. […] This method is a widely used procedure allowing the quantification of antigen-specific T cells. […] Spots representing single IFN-γ producing T cells were counted and the number of background spots was substracted from all samples. The high number of spots detected after the stimulation with Con A (data not shown) indicates a good condition of the used lymphocytes. […]

Poly-L-arginine [pR]
TRP-2181-188-specific immune response (IFN-γ-producing spleen cells) [1]: enhances TRP-2181-188-specific immune responses
degradation of pSP65 DNA by serum DNases (agarose gel band pattern) (serum DNAses): prevented

KLKLLLLLKLK—COOH (KLKLLLLLKLK-OH) [synthetic peptide containing KLK-motifs separated by a linker of hydrophobic amino acids]
peptide-specific IFN-γ-production (PBMCs) [2]: no peptide-specific IFN-γ-production
peptide-specific IFN-γ-production (PBMCs) [3]: no peptide-specific IFN-γ-production

U-ODN 13b: ODNs containing deoxy-Uridine monophosphate (not substituted with thiophospate): tcc atg acu ttc ctg atg ct (DNA TCCATGACUTTCCTGATGCT; DNA, all phosphodiester, T or U not given here; further chemistry not fully specified)
TRP-2181-188-specific immune response (IFN-γ-producing lymph node cells) [4]: only upon co-injection of poly-L-arginine a strong immune response was induced

TRP-2181-188: VYDFFVWL, a MHC class I (H-2 Kb)-restricted epitope of mouse tyrosinase related protein-2 [reference compound]
peptide-specific IFN-γ-production (PBMCs) [3]: no peptide-specific IFN-γ-production

CpG-ODN 1668 b: ODNs containing CpG-motif (not substituted with thiophospate): tcc atg acg ttc ctg atg ct (DNA TCCATGACGTTCCTGATGCT; unmodified DNA)
peptide-specific IFN-g producing cells (spleen) ([5]; listed as CpG 1668 b): potent and long lasting immune stimulatory effect
peptide-specific IFN-g producing cells (spleen) ([5]; listed as CpG 1668b): significantly higher numbers of peptide-specific IFN-g producing cells
OVA257-264-specific immune response (IFN-γ-producing cells/1×10^6 lymph node cells) [6]: only upon co-injection of poly-L-arginine a high immune response was induced
